US20240124458A1, “POLYMORPHS OF AVAPRITINIB AND METHODS FOR PREPARING THE POLYMORPHS” (Macfarlan Smith Limted, priority 2020, published 2024)

Assay: Gravimetric vapour sorption (GVS) isotherm, with XRPD after analysis
Assay type: physicochemical
Settings: for water uptake (GVS isotherm plot): 25° C./90% RH; for XRPD after GVS analysis (change in form): after GVS cycles, 0-90% RH at 25° C.
Experimental: XRPD diffractograms were collected on a Bruker D8 diffractometer using Cu Kα radiation (40 kV, 40 mA) and a θ-2θ goniometer fitted with a Ge monochromator. The incident beam passes through a 2.0 mm divergence slit followed by a 0.2 mm anti-scatter slit and knife edge. The diffracted beam passes through an 8.0 mm receiving slit with 2.5° Soller slits followed by the Lynxeye Detector. The software used for data collection and analysis was Diffrac Plus XRD Commander and Diffrac Plus EVA respectively.
Hygroscopicity of a solid material may be determined by means of gravimetric vapour sorption (GVS) analysis, sometimes known by dynamic vapour sorption (DVS) analysis.
The experiment subjects a sample material which is held in a fine wire basket on a microbalance within a temperature and humidity controlled environment (chamber). Using the software, the collected data can then be processed to determine the isotherm points at the increment ranges specified during the experiment and show the overall water uptake of the material.
Sorption isotherms were obtained using a SMS DVS Intrinsic moisture sorption analyser, controlled by DVS Intrinsic Control software. The sample temperature was maintained at 25° C. by the instrument controls. The humidity was controlled by mixing streams of dry and wet nitrogen, with a total flow rate of 200 ml/min. The relative humidity was measured by a calibrated Rotronic probe (dynamic range of 1.0-100% RH), located near the sample. The weight change, (mass relaxation) of the sample as a function of %RH was constantly monitored by a microbalance (accuracy ±0.005 mg).
Typically, 5-30 mg of sample was placed in a tared mesh stainless steel basket under ambient conditions. The sample was loaded and unloaded at 40% RH and 25° C. (typical room conditions). A moisture sorption isotherm was performed as outlined below (2 scans per complete cycle). The standard isotherm was performed at 25° C. at 10% RH intervals over a 0-90% RH range. Typically, a double cycle (4 scans) was carried out. Data analysis was carried out within Microsoft Excel using the DVS Analysis Suite.

SMILES: Cn1cc(-c2cc3c(N4CCN(c5ncc([C@@](C)(N)c6ccc(F)cc6)cn5)CC4)ncnn3c2)cn1 [avapritinib anhydrate, (1S)-1-(4-fluorophenyl)-1-[2-[4-[6-(1-methylpyrazol-4-yl)pyrrolo[2,1-f][1,2,4]triazin-4-yl]piperazin-1-yl]pyrimidin-5-yl]ethanamine]
- water uptake (GVS isotherm plot): about 0.1 % w/w
- XRPD after GVS analysis (change in form): unchanged

SMILES: Cn1cc(-c2cc3c(N4CCN(c5ncc([C@@](C)(N)c6ccc(F)cc6)cn5)CC4)ncnn3c2)cn1 [avapritinib hydrate, (1S)-1-(4-fluorophenyl)-1-[2-[4-[6-(1-methylpyrazol-4-yl)pyrrolo[2,1-f][1,2,4]triazin-4-yl]piperazin-1-yl]pyrimidin-5-yl]ethanamine]
- water uptake (GVS isotherm plot): about 4.0 % w/w
- XRPD after GVS analysis (change in form): unchanged
